Assay results as given in US20070117770A1, “Human ribosomal DNA (rDNA) and ribosomal RNA (rRNA) nucleic acids and uses thereof” (Cylene Pharmaceuticals, Inc., priority 2005, published 2007).

Legend:
[1] = molecular target: Axl(h) (Homo sapiens, UniProt P30530); assay: Protein kinase inhibition assay; format: biochemical; conditions: read-out: percent residual activity of Axl(h)
Procedure: (§1) Certain compounds were tested for activity in protein kinase inhibition assays. All substrates were dissolved and diluted to working stocks in de-ionized water, apart from histone H1 (10× working stock in 20 mM MOPS pH 7.0), PDKtide (10× working stock in 50 mM Tris pH 7.0) ATF2 (which is typically stored at a 20× working stock in 50 mM Tris pH 7.5, 150 mM NaCl, 0.1 mM EGTA, 0.03% Brij-35, 50% glycerol, 1 mM benzamidine, 0.2 mM PMSF and 0.1% R-mercaptoethanol), KKLNRTLSFAEPG (SEQ ID NO:203) and RRRLSFAEPG (SEQ ID NO:204) (50 mM HEPES pH 7.4) and GGEEEEYFELVKKKK (SEQ ID NO:205) (20 mM MOPS pH 7.0). All kinases were pre-diluted to a 10× working concentration prior to addition into the assay. The composition of the dilution buffer for each kinase is detailed below.
(§2) In a final reaction volume of 25 μl, Axl (h) (5-10 mU) is incubated with 8 mM MOPS pH 7.0, 0.2 mM EDTA, 250 μM KKSRGDYMTMQIG (SEQ ID NO:210), 10 mM MgAcetate and [y-33P-ATP] (specific activity approx. 500 cpm/pmol, concentration as required). The reaction is initiated by the addition of the MgATP mix. After incubation for 40 minutes at room temperature, the reaction is stopped by the addition of 5 μl of a 3% phosphoric acid solution. 10 μl of the reaction is then spotted onto a P30 filtermat and washed three times for 5 minutes in 75 mM phosphoric acid and once in methanol prior to drying and scintillation counting.

[2] = system: c-RAF(h); assay: Protein kinase inhibition assay; format: biochemical, human; conditions: 2.5 μM
Procedure: as §1
as §2, with “c-RAF” for “Axl”, “25” for “8”, “Tris” for “MOPS”, “7.5, 0.02” for “7.0, 0.2”, “EGTA, 0.66 mg/ml myelin basic protein,” for “EDTA, 250 μM KKSRGDYMTMQIG (SEQ ID NO:210),”, “[gamma-33P-ATP]” for “[y-33P-ATP]”

[3] = molecular target: EGFR(h) (Homo sapiens, UniProt P00533); assay: Protein kinase inhibition assay; format: biochemical; conditions: read-out: percent residual activity of EGFR(h)
Procedure: as §1
as §2, with “EGFR” for “Axl”, “10 mM MnCl2, 0.1 mg/ml poly(Glu, Tyr) 4:1,” for “250 μM KKSRGDYMTMQIG (SEQ ID NO:210),”, “[gamma-33P-ATP]” for “[y-33P-ATP]”, “Filtermat A” for “P30 filtermat”

[4] = molecular target: JAK3(h) (Homo sapiens, UniProt P52333); assay: Protein kinase inhibition assay; format: biochemical; conditions: read-out: percent residual activity of JAK3(h)
Procedure: as §1
as §2, with “JAK3” for “Axl”, “500” for “250”, “GGEEEEYFELVKKKK” for “KKSRGDYMTMQIG”, “NO:218),” for “NO:210),”, “[gamma-33P-ATP]” for “[y-33P-ATP]”

[5] = molecular target: Met(h) (Homo sapiens, UniProt P08581); assay: Protein kinase inhibition assay; format: biochemical; conditions: read-out: percent residual activity of Met(h)
Procedure: as §1
In a final reaction volume of 25 μl, Met (h) (5-10 mU) is incubated with 8 mM MOPS pH 7.0, 0.2 mM EDTA, 250 μM KKKSPGEYVNIEFG (SEQ ID NO:207), 10 mM MgAcetate and [y-33P-ATP] (specific activity approx. 500 cpm/pmol, concentration as required). The reaction is initiated by the addition of the MgATP mix. After incubation for 40 minutes at room temperature, the reaction is stopped by the addition of 5 μl of a 3% phosphoric acid solution. 10 μl of the reaction is then spotted onto a P30 filtermat and washed three times for 5 minutes in 75 mM phosphoric acid and once in methanol prior to a drying and scintillation counting.

[6] = system: HCT116 cells; assay: Total (nucleolar) RNA synthesis (3H-uridine incorporation); format: cell-based; design: 3H-uridine incorporation, time course: unit of the concentration uncertain
Procedure: Effects of compound A-1 and compound B-1 on DNA synthesis, RNA synthesis and protein synthesis were determined in HCT116 cells. HCT116 cells were plated overnight at 100,000 cells per mL. Next day cells were treated with increasing amounts of either compound A-1 or compound B-1 followed by one hour incubation with BrdU label (from a BrdU Cell proliferation Assay Kit, Calbiochem) to monitor DNA synthesis; […] of ^3H-uridine to monitor total RNA synthesis; […] of ^3H-methionine to monitor protein synthesis or plain media to monitor RNA Polymerase II-dependent RNA synthesis. DNA synthesis was assessed using a BrdU-ELISA (BrdU Cell proliferation Assay Kit, Calbiochem). To measure total RNA synthesis, total RNA from treated cells was isolated with a RNease kit (QIAGEN), levels of total RNA were assessed with Ribogreen reagent (Invitrogen) and the newly synthesized tritiated RNA was measured in a scintillation Counter (Perkin Elmer). To measure effects on protein synthesis, cells were lysed in a RIPA buffer, and total protein was precipitated with 10% TCA on a glass-filters. Newly synthesized tritiated protein was measured in a scintillation Counter (Perkin Elmer). Effects of drugs on […] RNA synthesis were assessed by monitoring levels of a c-myc mRNA, which has a relatively short half-life of approximately 30 minutes, by Taqman qRT-PCR (ABI).

Axl(h), sequence (P30530 26-894): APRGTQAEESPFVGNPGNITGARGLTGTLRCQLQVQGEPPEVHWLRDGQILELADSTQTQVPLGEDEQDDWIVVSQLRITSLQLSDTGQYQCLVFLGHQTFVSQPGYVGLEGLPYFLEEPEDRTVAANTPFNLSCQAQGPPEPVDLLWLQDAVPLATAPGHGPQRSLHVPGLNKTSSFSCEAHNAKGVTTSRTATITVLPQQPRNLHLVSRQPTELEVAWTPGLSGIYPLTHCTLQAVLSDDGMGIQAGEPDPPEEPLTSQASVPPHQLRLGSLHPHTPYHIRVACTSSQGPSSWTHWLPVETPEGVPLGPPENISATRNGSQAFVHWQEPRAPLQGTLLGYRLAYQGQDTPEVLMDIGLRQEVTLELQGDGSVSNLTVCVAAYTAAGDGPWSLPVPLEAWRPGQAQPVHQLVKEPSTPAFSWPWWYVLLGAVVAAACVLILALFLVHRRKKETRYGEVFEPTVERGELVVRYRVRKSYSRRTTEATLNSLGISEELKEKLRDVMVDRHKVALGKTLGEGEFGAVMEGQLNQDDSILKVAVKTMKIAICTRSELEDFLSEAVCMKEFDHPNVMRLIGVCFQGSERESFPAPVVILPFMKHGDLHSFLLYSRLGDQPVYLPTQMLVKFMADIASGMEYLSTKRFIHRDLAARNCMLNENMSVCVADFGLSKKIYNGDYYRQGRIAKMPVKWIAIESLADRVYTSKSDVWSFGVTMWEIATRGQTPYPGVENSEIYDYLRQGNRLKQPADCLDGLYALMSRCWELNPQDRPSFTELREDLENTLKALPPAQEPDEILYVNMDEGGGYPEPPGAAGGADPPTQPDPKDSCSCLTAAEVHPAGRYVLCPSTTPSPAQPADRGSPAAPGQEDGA
JAK3(h), sequence (P52333 whole entry): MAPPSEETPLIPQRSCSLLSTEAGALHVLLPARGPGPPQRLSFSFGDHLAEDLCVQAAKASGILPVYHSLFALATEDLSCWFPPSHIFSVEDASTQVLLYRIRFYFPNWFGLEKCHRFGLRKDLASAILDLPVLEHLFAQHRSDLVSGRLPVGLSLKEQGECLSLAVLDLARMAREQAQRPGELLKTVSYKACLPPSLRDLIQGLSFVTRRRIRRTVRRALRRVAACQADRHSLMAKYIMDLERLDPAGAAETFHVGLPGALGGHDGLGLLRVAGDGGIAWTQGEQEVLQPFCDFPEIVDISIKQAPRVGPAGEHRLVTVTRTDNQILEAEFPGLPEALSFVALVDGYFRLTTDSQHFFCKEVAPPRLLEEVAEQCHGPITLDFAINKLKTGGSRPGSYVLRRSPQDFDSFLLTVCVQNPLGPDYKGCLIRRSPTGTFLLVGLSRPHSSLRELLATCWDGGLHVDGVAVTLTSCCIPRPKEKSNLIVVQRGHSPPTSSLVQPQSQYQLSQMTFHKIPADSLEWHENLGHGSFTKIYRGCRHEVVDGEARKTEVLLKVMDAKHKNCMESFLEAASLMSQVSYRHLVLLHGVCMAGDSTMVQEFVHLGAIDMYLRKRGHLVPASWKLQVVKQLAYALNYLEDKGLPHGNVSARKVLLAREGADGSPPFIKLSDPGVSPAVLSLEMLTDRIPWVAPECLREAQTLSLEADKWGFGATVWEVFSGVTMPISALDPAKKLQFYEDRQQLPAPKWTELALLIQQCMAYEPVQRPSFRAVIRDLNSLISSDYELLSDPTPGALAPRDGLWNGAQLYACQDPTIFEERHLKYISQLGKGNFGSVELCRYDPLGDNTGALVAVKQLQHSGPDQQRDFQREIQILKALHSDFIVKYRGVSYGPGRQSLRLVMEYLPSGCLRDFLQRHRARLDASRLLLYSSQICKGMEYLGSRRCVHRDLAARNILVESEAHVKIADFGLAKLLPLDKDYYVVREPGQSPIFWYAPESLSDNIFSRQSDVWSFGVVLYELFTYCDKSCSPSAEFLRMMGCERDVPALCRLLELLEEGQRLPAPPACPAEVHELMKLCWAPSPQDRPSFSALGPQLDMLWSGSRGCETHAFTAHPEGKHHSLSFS
EGFR(h), sequence (P00533 25-1210): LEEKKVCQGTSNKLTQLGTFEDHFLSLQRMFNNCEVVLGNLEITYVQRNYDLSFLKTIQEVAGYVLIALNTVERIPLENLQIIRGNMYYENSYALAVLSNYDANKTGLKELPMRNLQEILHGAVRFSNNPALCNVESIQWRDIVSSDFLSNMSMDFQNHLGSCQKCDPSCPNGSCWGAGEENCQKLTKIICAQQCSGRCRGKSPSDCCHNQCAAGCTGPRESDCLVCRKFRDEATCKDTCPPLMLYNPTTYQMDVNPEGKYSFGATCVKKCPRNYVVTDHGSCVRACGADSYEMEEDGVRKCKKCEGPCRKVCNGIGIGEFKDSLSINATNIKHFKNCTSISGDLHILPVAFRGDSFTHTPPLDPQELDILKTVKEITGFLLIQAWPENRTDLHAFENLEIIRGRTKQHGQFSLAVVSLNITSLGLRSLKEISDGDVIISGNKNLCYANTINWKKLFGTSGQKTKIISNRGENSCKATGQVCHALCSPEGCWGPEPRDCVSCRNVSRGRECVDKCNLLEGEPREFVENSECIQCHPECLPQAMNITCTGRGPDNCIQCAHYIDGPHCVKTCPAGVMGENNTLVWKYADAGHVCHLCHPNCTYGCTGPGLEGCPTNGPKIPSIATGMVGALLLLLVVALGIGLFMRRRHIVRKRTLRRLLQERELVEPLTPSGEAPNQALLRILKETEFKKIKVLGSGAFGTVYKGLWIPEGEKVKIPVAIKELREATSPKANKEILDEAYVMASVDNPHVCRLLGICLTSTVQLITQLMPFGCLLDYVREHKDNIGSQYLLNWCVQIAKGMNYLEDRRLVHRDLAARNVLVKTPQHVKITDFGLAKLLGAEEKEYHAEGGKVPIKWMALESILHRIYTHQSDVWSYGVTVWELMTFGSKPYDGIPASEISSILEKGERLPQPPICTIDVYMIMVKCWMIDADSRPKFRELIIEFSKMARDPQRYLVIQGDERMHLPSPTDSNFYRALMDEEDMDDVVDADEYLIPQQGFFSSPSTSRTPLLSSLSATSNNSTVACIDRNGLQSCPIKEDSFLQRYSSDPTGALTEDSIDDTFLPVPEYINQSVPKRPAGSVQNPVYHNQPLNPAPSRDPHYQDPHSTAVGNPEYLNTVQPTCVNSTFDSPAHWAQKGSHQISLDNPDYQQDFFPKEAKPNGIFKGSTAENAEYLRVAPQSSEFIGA
Met(h), sequence (P08581 25-1390): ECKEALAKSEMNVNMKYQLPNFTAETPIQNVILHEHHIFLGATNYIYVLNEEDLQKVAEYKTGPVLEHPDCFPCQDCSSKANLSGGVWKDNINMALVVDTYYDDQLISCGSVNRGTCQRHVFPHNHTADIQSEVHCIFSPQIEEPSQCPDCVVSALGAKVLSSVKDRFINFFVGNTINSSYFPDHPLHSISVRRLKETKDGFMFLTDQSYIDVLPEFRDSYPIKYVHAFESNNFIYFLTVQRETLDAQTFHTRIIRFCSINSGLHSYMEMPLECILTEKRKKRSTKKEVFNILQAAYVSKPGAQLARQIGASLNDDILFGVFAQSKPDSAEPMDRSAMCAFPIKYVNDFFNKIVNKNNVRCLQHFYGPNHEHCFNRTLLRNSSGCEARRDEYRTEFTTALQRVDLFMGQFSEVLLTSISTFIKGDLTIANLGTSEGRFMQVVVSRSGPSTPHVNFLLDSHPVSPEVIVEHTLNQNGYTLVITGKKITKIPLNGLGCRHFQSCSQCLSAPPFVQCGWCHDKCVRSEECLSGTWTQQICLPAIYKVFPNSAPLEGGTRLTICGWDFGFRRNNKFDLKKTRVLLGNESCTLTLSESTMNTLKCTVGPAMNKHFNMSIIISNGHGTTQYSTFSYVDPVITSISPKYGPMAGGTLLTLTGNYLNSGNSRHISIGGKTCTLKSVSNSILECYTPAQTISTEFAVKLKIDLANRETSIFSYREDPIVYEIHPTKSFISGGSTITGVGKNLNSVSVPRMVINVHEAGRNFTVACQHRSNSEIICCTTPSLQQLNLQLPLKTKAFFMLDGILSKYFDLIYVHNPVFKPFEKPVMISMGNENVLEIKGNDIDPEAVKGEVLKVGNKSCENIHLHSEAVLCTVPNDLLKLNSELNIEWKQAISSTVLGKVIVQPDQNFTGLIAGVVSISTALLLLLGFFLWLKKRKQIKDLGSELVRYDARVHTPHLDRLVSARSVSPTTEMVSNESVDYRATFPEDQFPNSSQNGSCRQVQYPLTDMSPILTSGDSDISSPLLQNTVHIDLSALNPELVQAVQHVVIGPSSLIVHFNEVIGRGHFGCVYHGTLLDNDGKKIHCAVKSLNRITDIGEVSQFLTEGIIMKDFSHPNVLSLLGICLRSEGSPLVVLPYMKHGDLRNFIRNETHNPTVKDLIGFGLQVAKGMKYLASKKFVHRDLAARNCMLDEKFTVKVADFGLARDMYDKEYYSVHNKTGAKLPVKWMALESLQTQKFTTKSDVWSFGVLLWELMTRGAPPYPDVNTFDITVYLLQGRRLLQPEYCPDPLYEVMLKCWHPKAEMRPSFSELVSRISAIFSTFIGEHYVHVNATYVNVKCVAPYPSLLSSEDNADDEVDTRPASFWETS

remaining activity at 2.5 µM [1] [%]	percent residual activity of c-RAF(h) [2] [%]	remaining activity at 2.5 µM [3] [%]	remaining activity at 2.5 µM [4] [%]	remaining activity at 2.5 µM [5] [%]	Structure (SMILES)	concentration that significantly reduced nucleolar RNA synthesis [6] [µM]	3H-uridine incorporation, time course ([6]; 3 (unit uncertain) for 15 min)	3H-uridine incorporation, time course ([6]; 10 (unit uncertain) for 30 min)
75	100	122	112	132	CN1CCCC1CCNC(=O)c1cn2c3c(c(N4CCC(c5cnccn5)C4)c(F)cc3c1=O)Oc1cc3ccccc3cc1-2 (centres unmarked) [Compound A-1]	1	substantially inhibited	–
102	96	117	109	115	CC(=O)N1CCN(c2ccc3c(=O)c(C(=O)NCCN4CCCC4)c4n(C)c5ccccc5n4c3n2)CC1 [Compound B-1]	10	–	substantially inhibited
